Experimental data taken from patent US20160279299A1, “SILK FIBROIN-BASED FLUID DELIVERY SYSTEMS AND DEVICES” (TRUSTEES OF TUFTS COLLEGE, priority 2013, published 2016).

Test system: fat grafts (human lipoaspirate)
Assay: In-vivo murine model of adipose tissue reconstruction: lipoaspirate fat graft perfused via silk fibroin-based catheter and osmotic pump
Procedure: Female athymic nude mice were divided into 3 groups: animals treated with insulin (n=24), dexamethasone (n=15), or PBS vehicle (n=10). The groups were further subdivided into four different doses for insulin (e.g., ˜100 μg, ˜300 μg, ˜650 μg, or ˜1000 μg) or three different doses for dexamethasone (e.g., ˜1 mg/ml, ˜2 mg/ml, ˜3 mg/ml). Osmotic pumps that can deliver a fluid with a selected flow rate for a period of time were prepared with the insulin or dexamethasone solution or PBS vehicle. In this Example, ALZET 4-week osmotic pumps with a selected flow rate of ˜0.11 μl/hr were used. One end of the silk fibroin-based catheter was connected to the pump, e.g., using medical grade silicone (e.g., Dow Corning) (FIG. 8A). The silk catheter/pump construct was primed for 48 hours at 37° C., per manufacturer's instructions.
Lipoaspirate grafts were obtained from human subcutaneous abdominal fat during scheduled elective surgery and processed for injection under laboratory conditions. Lipoaspirate was loaded into ˜1 ml syringes in sterile fashion. Mice were anesthetized with 2% isoflurane in oxygen at the time of the procedure. Once the anesthetic plane was obtained, the animals were prepped for sterile surgery. Each animal received two bilateral ˜500 μl subcutaneous injections of lipoaspirate on the dorsal region, for example, through a 16G Coleman cannula using the fan-injection technique, which uniformly spreads the fat graft created beneath the cutaneous layer. For each animal, one of the two fat grafts received a silk fibroin-based catheter connected to an implantable osmotic pump. The silk catheter/pump was implanted subcutaneously through a small incision between the scapulae, and the fat graft was placed surrounding the silk fibroin-based catheter. The incision for the catheter/pump implantation was closed with a standard wound clip. To prevent and/or reduce pain and discomfort, mice were given subcutaneous injections of ˜5 mg/kg ketoprofen (Fort Dodge Animal Health, Fort Dodge, Iowa) immediately after the surgical procedure and every 24 hours as needed.
At 4 weeks post surgery, the mice were euthanized using carbon dioxide asphyxiation followed by cervical dislocation, and graft tissue was isolated from the bilateral dorsal injection sites. Explants were assessed for mass on a standard laboratory balance, and volume was measured using a gas pycnometer (Accupyc II 1340; Micrometrics, Atlanta, Ga.). Immediately after the dimensional analysis was complete, the tissue samples were fixed in 10% neutral buffered formalin and processed and embedded in paraffin.

Compound | dose with the largest effect on fat graft volume (dexamethasone at ~0.11 μL/hr, 28 days post-implantation) [mg/mL] | adverse events during the therapy (mouse, in vivo) | survival of animals (highest insulin groups, ~1000 μg and ~650 μg) | group (dose) with the highest volume retention (insulin at ~0.11 μL/hr, 28 days post-implantation) [µg] | H&E: cellular response to the silk fibroin-based catheter (insulin doses, 28 days) | deaths (insulin ~300 μg group) | fat retention and adipogenesis (insulin ~300 μg group, 28 days) | H&E: tissue around the silk fibroin-based catheter (insulin ~1000 μg dose, 28 days) | volume retention of fat grafts, statistical significance (insulin ~100, ~300, ~650, ~1000 μg at ~0.11 μL/hr, 28 days post-implantation, gas pycnometry) | fat graft health / biocompatibility (insulin-treated mice, 4 weeks)
C[C@@H]1C[C@H]2[C@@H]3CCC4=CC(=O)C=C[C@]4(C)[C@@]3(F)[C@@H](O)C[C@]2(C)[C@@]1(O)C(=O)CO [dexamethasone] | ~2 | no adverse events |  |  |  |  |  |  |  | 
insulin |  |  | generally died during the study period | ~300 | little to no cellular response | no deaths due to drug overdose | trend toward fat retention and adipogenesis | a fibrous tissue was observed to surround the silk fibroin-based catheter | no statistical significance in volume retention | no evidence of oil cysts or adverse biocompatibility reaction
